Assay results taken from patent publication US20120324604A1, “PESTICIDAL MIXTURES CONTAINING ISOXAZOLINE DERIVATIVES AND A FUNGICIDE” (priority 2010, published 2012).

Tests used:
Type in all cases: cell-based
Rhizoctonia solani = Rhizoctonia solani (Foot Rot, Damping-Off) growth inhibition, microtiter plate, photometric
Experimental: Rhizoctonia solani (Foot Rot, Damping-Off):
Mycelial fragments of the fungus from cryogenic storage were directly mixed into nutrient broth (potato dextrose broth). After placing a (DMSO) solution of the test compounds into a microtiter plate (96-well format) the nutrient broth containing the fungal spores was added.

Fusarium culmorum = Fusarium culmorum (Root Rot) growth inhibition, microtiter plate, photometric; details: alone
Experimental: Fusarium culmorum (Root Rot):
(§1) Conidia of the fungus from cryogenic storage were directly mixed into nutrient broth (potato dextrose broth). After placing a (DMSO) solution of the test compounds into a microtiter plate (96-well format) the nutrient broth containing the fungal spores was added.

Pythium ultimum = Pythium ultimum (Damping Off) growth inhibition, microtiter plate, photometric
Experimental: Pythium ultimum (Damping Off):
Mycelial fragments of the fungus, prepared from a fresh liquid culture, were directly mixed into nutrient broth (potato dextrose broth). After placing a (DMSO) solution of the test compounds into a microtiter plate (96-well format) the nutrient broth containing the fungal spores was added.

[1] = system: Mycosphaerella arachidis (syn. Cercospora arachidicola); assay: Mycosphaerella arachidis (Brown Leaf Spot of Groundnut) growth inhibition, microtiter plate, photometric; details: alone
Experimental: Mycosphaerella arachidis (syn. Cercospora arachidicola), Brown Leaf Spot of Groundnut (Peanut):
as §1

Septoria tritici = Septoria tritici (Leaf Blotch) growth inhibition, microtiter plate, photometric; details: for AVERAGE DEAD IN % A1: A1 alone; for AVERAGE DEAD IN %: alone
Experimental: Septoria tritici (Leaf Blotch):
as §1

Gaeumannomyces graminis = Gaeumannomyces graminis growth inhibition, microtiter plate, photometric
Experimental: Mycelial fragments of the fungus from cryogenic storage were directly mixed into nutrient broth (potato dextrose broth). After placing a (DMSO) solution of the test compounds into a microliter plate (96-well format) the nutrient broth containing the fungal spores was added.

[2] = system: Glomerella lagenarium (syn. Colletotrichum lagenarium); assay: Glomerella lagenarium (Anthracnose of Cucurbits) growth inhibition, microtiter plate, photometric; details: alone
Experimental: Glomerella lagenarium (syn. Colletotrichum lagenarium), Anthracnose of Cucurbits:
as §1

[3] = applied alone, 0.0390625 ppm AI
[4] = single compound at 0.0390625 ppm AI
[5] = single compound at 0.078125 ppm AI
[6] = single compound at 0.15625 ppm AI
[7] = single compound at 0.3125 ppm AI
[8] = single compound at 0.625 ppm AI

Cc1cc(C2=NOC(c3cc(Cl)cc(Cl)c3)(C(F)(F)F)C2)ccc1C(=O)NC1(C)CSC1 (racemic) [A1]
0%: AVERAGE DEAD IN % (Rhizoctonia solani; [3]) | AVERAGE DEAD IN % (Rhizoctonia solani; applied alone, 0.078125 ppm AI) | AVERAGE DEAD IN % (Rhizoctonia solani; applied alone, 0.15625 ppm AI) | AVERAGE DEAD IN % (Rhizoctonia solani; applied alone, 0.3125 ppm AI) | AVERAGE DEAD IN % (Rhizoctonia solani; applied alone, 0.625 ppm AI) | AVERAGE DEAD IN % (Rhizoctonia solani; applied alone, 1.25 ppm AI) | AVERAGE DEAD IN % (Rhizoctonia solani; applied alone, 2.5 ppm AI) | AVERAGE DEAD IN % (Rhizoctonia solani; applied alone, 5 ppm AI) | AVERAGE DEAD IN % (Rhizoctonia solani; applied alone, 10 ppm AI) | AVERAGE DEAD IN % (Rhizoctonia solani; applied alone, 20 ppm AI) | AVERAGE DEAD IN % (Rhizoctonia solani; [4]) | AVERAGE DEAD IN % (Rhizoctonia solani; [5]) | AVERAGE DEAD IN % (Rhizoctonia solani; [6]) | AVERAGE DEAD IN % (Rhizoctonia solani; [7]) | AVERAGE DEAD IN % (Rhizoctonia solani; [8]) | AVERAGE DEAD IN % (Rhizoctonia solani; single compound at 1.25 ppm AI) | AVERAGE DEAD IN % (Rhizoctonia solani; single compound at 2.5 ppm AI) | AVERAGE DEAD IN % (Rhizoctonia solani; single compound at 5 ppm AI) | AVERAGE DEAD IN % (Rhizoctonia solani; single compound at 10 ppm AI) | AVERAGE DEAD IN % (Rhizoctonia solani; single compound at 20 ppm AI) | AVERAGE DEAD IN % (Fusarium culmorum; 0.625 PPM AI) | AVERAGE DEAD IN % (Fusarium culmorum; 1.25 PPM AI) | AVERAGE DEAD IN % (Fusarium culmorum; 2.5 PPM AI) | AVERAGE DEAD IN % (Fusarium culmorum; 5 PPM AI) | AVERAGE DEAD IN % (Fusarium culmorum; 10 PPM AI) | AVERAGE DEAD IN % (Fusarium culmorum; 20 PPM AI) | AVERAGE DEAD IN % (Pythium ultimum; [4]) | AVERAGE DEAD IN % (Pythium ultimum; [5]) | AVERAGE DEAD IN % (Pythium ultimum; [6]) | AVERAGE DEAD IN % (Pythium ultimum; [7]) | AVERAGE DEAD IN % (Pythium ultimum; [8]) | AVERAGE DEAD IN % (Pythium ultimum; single compound at 1.25 ppm AI) | AVERAGE DEAD IN % (Pythium ultimum; single compound at 2.5 ppm AI) | AVERAGE DEAD IN % (Pythium ultimum; single compound at 5 ppm AI) | AVERAGE DEAD IN % (Pythium ultimum; single compound at 10 ppm AI) | AVERAGE DEAD IN % (Pythium ultimum; single compound at 20 ppm AI) | AVERAGE DEAD IN % ([1]; 0.0390625 ppm AI) | AVERAGE DEAD IN % ([1]; 0.078125 ppm AI) | AVERAGE DEAD IN % ([1]; 0.15625 ppm AI) | AVERAGE DEAD IN % ([1]; 0.3125 ppm AI) | AVERAGE DEAD IN % ([1]; 0.625 ppm AI) | AVERAGE DEAD IN % ([1]; 1.25 ppm AI) | AVERAGE DEAD IN % ([1]; 2.5 ppm AI) | AVERAGE DEAD IN % ([1]; 5 ppm AI) | AVERAGE DEAD IN % ([1]; 10 ppm AI) | AVERAGE DEAD IN % A1 (Septoria tritici; 0.0390625 ppm AI) | AVERAGE DEAD IN % A1 (Septoria tritici; 0.078125 ppm AI) | AVERAGE DEAD IN % A1 (Septoria tritici; 0.15625 ppm AI) | AVERAGE DEAD IN % A1 (Septoria tritici; 0.3125 ppm AI) | AVERAGE DEAD IN % A1 (Septoria tritici; 0.625 ppm AI) | AVERAGE DEAD IN % A1 (Septoria tritici; 1.25 ppm AI) | AVERAGE DEAD IN % A1 (Septoria tritici; 2.5 ppm AI) | AVERAGE DEAD IN % A1 (Septoria tritici; 5 ppm AI) | AVERAGE DEAD IN % A1 (Septoria tritici; 10 ppm AI) | AVERAGE DEAD IN % A1 (Septoria tritici; 20 ppm AI) | AVERAGE DEAD IN % (Septoria tritici; 0.0390625 ppm AI) | AVERAGE DEAD IN % (Septoria tritici; 0.078125 ppm AI) | AVERAGE DEAD IN % (Septoria tritici; 0.15625 ppm AI) | AVERAGE DEAD IN % (Septoria tritici; 0.3125 ppm AI) | AVERAGE DEAD IN % (Septoria tritici; 0.625 ppm AI) | AVERAGE DEAD IN % (Septoria tritici; 1.25 ppm AI) | AVERAGE DEAD IN % (Septoria tritici; 2.5 ppm AI) | AVERAGE DEAD IN % (Septoria tritici; 5 ppm AI) | AVERAGE DEAD IN % (Septoria tritici; 10 ppm AI) | AVERAGE DEAD IN % (Septoria tritici; 20 ppm AI) | AVERAGE DEAD IN % (Gaeumannomyces graminis; [3]) | AVERAGE DEAD IN % (Gaeumannomyces graminis; applied alone, 0.078125 ppm AI) | AVERAGE DEAD IN % (Gaeumannomyces graminis; applied alone, 0.15625 ppm AI) | AVERAGE DEAD IN % (Gaeumannomyces graminis; applied alone, 0.3125 ppm AI) | AVERAGE DEAD IN % (Gaeumannomyces graminis; applied alone, 0.625 ppm AI) | AVERAGE DEAD IN % (Gaeumannomyces graminis; applied alone, 1.25 ppm AI) | AVERAGE DEAD IN % (Gaeumannomyces graminis; applied alone, 2.5 ppm AI) | AVERAGE DEAD IN % (Gaeumannomyces graminis; applied alone, 5 ppm AI) | AVERAGE DEAD IN % (Gaeumannomyces graminis; applied alone, 10 ppm AI) | AVERAGE DEAD IN % (Gaeumannomyces graminis; applied alone, 20 ppm AI) | AVERAGE DEAD IN % (Gaeumannomyces graminis; [4]) | AVERAGE DEAD IN % (Gaeumannomyces graminis; [5]) | AVERAGE DEAD IN % (Gaeumannomyces graminis; [6]) | AVERAGE DEAD IN % (Gaeumannomyces graminis; [7]) | AVERAGE DEAD IN % (Gaeumannomyces graminis; [8]) | AVERAGE DEAD IN % (Gaeumannomyces graminis; single compound at 1.25 ppm AI) | AVERAGE DEAD IN % (Gaeumannomyces graminis; single compound at 2.5 ppm AI) | AVERAGE DEAD IN % (Gaeumannomyces graminis; single compound at 5 ppm AI) | AVERAGE DEAD IN % (Gaeumannomyces graminis; single compound at 10 ppm AI) | AVERAGE DEAD IN % (Gaeumannomyces graminis; single compound at 20 ppm AI) | AVERAGE DEAD IN % ([2]; 0.0390625 ppm AI) | AVERAGE DEAD IN % ([2]; 0.078125 ppm AI) | AVERAGE DEAD IN % ([2]; 0.15625 ppm AI) | AVERAGE DEAD IN % ([2]; 0.3125 ppm AI) | AVERAGE DEAD IN % ([2]; 0.625 ppm AI) | AVERAGE DEAD IN % ([2]; 1.25 ppm AI) | AVERAGE DEAD IN % ([2]; 2.5 ppm AI) | AVERAGE DEAD IN % ([2]; 5 ppm AI) | AVERAGE DEAD IN % ([2]; 10 ppm AI) | AVERAGE DEAD IN % ([2]; 20 ppm AI)
